Results as given in BindingDB's records for doi:10.1016/j.bioorg.2015.01.005 (Kurukshetra University, 2015).

Experiments:
Cathepsin B = Cathepsin B (Capra hircus, UniProt H9B8T9); experiment: Cathepsin Ezyme Assay; settings: pH 6
Description: (§1) Cathepsin B and H were first activated in the presence of thiol activators at pH 6.0 and pH 7.0, respectively. Then, 15 µL of the enzyme solution was mixed with 940 µL of 0.1 M sodium phosphate buffer containing 1 mM EDTA separately, for 10 min at 37 °C. […] After 30 min, 25 µL of 100 mM substance stock solution was added to start the reaction.

Cathepsin H = target: T1, Cathepsin H (Capra hircus, UniProt A0A060INS8); experiment: Cathepsin Ezyme Assay; settings: pH 6
T1 sequence (A0A060INS8 whole entry): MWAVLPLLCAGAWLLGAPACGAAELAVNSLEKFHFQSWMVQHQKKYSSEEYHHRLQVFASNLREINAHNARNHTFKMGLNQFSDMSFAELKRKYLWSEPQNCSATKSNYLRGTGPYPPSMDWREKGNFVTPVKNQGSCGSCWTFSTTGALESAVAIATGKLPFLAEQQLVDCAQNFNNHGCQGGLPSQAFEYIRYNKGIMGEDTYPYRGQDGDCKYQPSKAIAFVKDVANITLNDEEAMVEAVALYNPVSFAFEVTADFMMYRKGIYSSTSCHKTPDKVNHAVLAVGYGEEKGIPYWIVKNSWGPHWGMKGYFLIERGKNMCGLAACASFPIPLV
Description: as §1

Which Ki (Cathepsin B) does the source give for `O=C1NC(c2ccc(Br)cc2)Nc2ccccc21` (centres undefined) here?
Its Ki is 32.5 µM.

What about the Ki (Cathepsin H) of the same compound?
The Ki was 52.6 µM.

Which results are given for `CN(C)c1ccc(C2NC(=O)c3ccccc3N2)cc1` (centres undefined) [2-(4-(Dimethylamino)phenyl)-2,3-dihydroquinazolin-4(1H)-one (1h)]?
Ki (Cathepsin B): 10.6 µM; Ki (Cathepsin H): 18.6 µM

Which results are given for `O=C1NC(c2ccc(Cl)cc2)Nc2ccccc21` (centres undefined) [2-(4-Chlorophenyl)-2,3-dihydroquinazolin-4(1H)-one (1e)]?
Ki (Cathepsin B): 0.041 µM; Ki (Cathepsin H): 23.3 µM

What does the source list for `O=C1NC(c2ccc(F)cc2)Nc2ccccc21` (centres undefined) [2-(4-Fluorophenyl)-2,3-dihydroquinazolin-4(1H)-one (1f)]?
Ki (Cathepsin B): 0.0064 µM; Ki (Cathepsin H): 8.18 µM

`COc1ccc(C2NC(=O)c3ccccc3N2)cc1` (centres undefined) [2-(4-Methoxyphenyl)-2,3-dihydroquinazolin-4(1H)-one (1d)] was tested. Which Ki (Cathepsin B) did it give?
Its Ki is 2.81 µM.

And the Ki (Cathepsin H)?
The Ki was 56.8 µM.

For `Cc1ccc(C2NC(=O)c3ccccc3N2)cc1` (centres undefined) [2-(4-Methylphenyl)-2,3-dihydroquinazolin-4(1H)-one (1c)], which Ki (Cathepsin B) is on record?
The Ki was 52.6 µM.

What about the Ki (Cathepsin H) of the same compound?
The Ki was 2.5 µM.

Which results are given for `O=C1NC(c2ccc([N+](=O)[O-])cc2)Nc2ccccc21` (centres undefined) [2-(4-Nitrophenyl)-2,3-dihydroquinazolin-4(1H)-one (1b)]?
Ki (Cathepsin B): 1.57 µM; Ki (Cathepsin H): 10.4 µM
